Reference: PubChem BioAssay AID588530 (Broad Institute, 2011)
The source made the active and inactive calls.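 Rule for the calls: active = Alamar Blue signal falls with dose, AC50 no more than twice the top valid dose; inconclusive = flat curve near half-strength inhibition, or poor fit; inactive = the rest.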

System: not listed separately
Assay: growth inhibition of C. albicans isolate, confirmation, CaCi-17 isolate, Alamar Blue, cherry-pick retest (AID 588530)
Conditions: C. albicans CaCi-17 growth, Alamar Blue fluorescence, 48 h; at 26 µM (top of the series)
In the case of `O=[N+]([O-])c1ccc(O)c(/C=N/Nc2ccc(Cl)nn2)c1`, the activity change, negative = inhibition is reported as -23.4% (inactive).
With `Cc1ccc(C(=O)c2coc3c2C(=O)C(=O)c2ccccc2-3)cc1` the activity change, negative = inhibition was 7.03% (inactive).

System: C. albicans CaCi-17 growth, Alamar Blue fluorescence, 48 h
Assay: as above
Conditions: not given
In the case of `O=C(N/N=C/c1cc2c3c(c1O)CCCN3CCC2)c1ccccc1O`, the AC50 is reported as 4.28 µM.
Work on `CCOC(=O)N1C(=O)C2(CCCCC2)N(c2ccc(C)cc2)C1=S` yielded an AC50 of 1.3 µM.
In the case of `CCOc1ccc(N=Nc2ccc(O)c3ncccc23)cc1`, the AC50 is reported as 11.6 µM.
Work on `O=C(Oc1c(Cl)cc(Cl)c2cccnc12)c1ccco1` yielded an AC50 of 1.71 µM.
In the case of `Cc1cc(NC(c2ccc(Cl)cc2)c2ccc3cccnc3c2O)no1` (centres undefined), the AC50 is reported as 2.49 µM.
`Oc1c(C(Nc2nc3ccccc3s2)c2ccco2)ccc2cccnc12` (centres undefined) showed an AC50 of 3.97 µM.
In the case of `COc1cccc(N=Nc2ccc3cccnc3c2O)c1`, the AC50 is reported as 5.37 µM.
For `O=Cc1ccc(O)c2ncccc12`, the AC50 was 13.7 µM.
Compound `CCN(CC)S(=O)(=O)c1cc(OC)ccc1N=Nc1ccc(O)c2ncccc12` has an AC50 of 15.3 µM.
`O=[N+]([O-])c1cc(CN2CCN(c3ccccc3)CC2)c(O)c2ncccc12` showed an AC50 of 10.6 µM.
`CN1CCN(C(c2ccc(C(F)(F)F)cc2)c2ccc3cccnc3c2O)CC1` (centres undefined) showed an AC50 of 8.86 µM.
For `O=C(Oc1c(Cl)cc(Cl)c2cccnc12)c1cccs1`, the AC50 was 3.29 µM.
For `CCCCCCC[n+]1ccc(-c2cc[n+](CCCCCCC)cc2)cc1`, the AC50 was 13.4 µM.
In the case of `Oc1c(CN2CCN(c3ccccc3)CC2)cc(Br)c2cccnc12`, the AC50 is reported as > 52 µM (inactive).
`C(C#CCCCCCCCCC[n+]1ccccc1)#CCCCCCCCCC[n+]1ccccc1` gave an AC50 of 1.52 µM.
Work on `Oc1c(C(c2ccc(Cl)cc2)N2CCCC2)cc(Cl)c2cccnc12` (centres undefined) yielded an AC50 of 7.68 µM.
For `O=c1ccc(N=Nc2ccccc2)ccc1O`, the AC50 was 4.73 µM.
`O=Nc1c(-c2cccc([N+](=O)[O-])c2)nc2ncccn12` showed an AC50 of 4.77 µM.
With `Oc1ccc(N=Nc2ccc3c(c2)OCCO3)c2ncccc12` the AC50 was > 52 µM (inactive).
Compound `COc1cccc(/C=N/Nc2ncnc3scc(-c4ccccc4)c23)c1O` has an AC50 of 12.5 µM.
`CCCCC(=O)NC(c1ccc(N(CC)CC)cc1)c1ccc2cccnc2c1O` (centres undefined) gave an AC50 of 3.73 µM.
With `CCCCC(=O)NC(c1ccco1)c1cc(Cl)c2cccnc2c1O` (centres undefined) the AC50 was 24.9 µM.
For `Oc1c(C(Nc2nccs2)c2ccc(C(F)(F)F)cc2)ccc2cccnc12` (centres undefined), the AC50 was 4.11 µM.
For `CN1CCN(C(c2ccc(C(F)(F)F)cc2)c2cc(Cl)c3cccnc3c2O)CC1` (centres undefined), the AC50 was 6.34 µM.
Work on `COc1ccc(C)cc1N=Nc1ccc(O)c2ncccc12` yielded an AC50 of 2.99 µM.
`CCN1/C(=C/C=C/c2oc3ccc(-c4ccccc4)cc3[n+]2CC)Oc2ccc(-c3ccccc3)cc21` gave an AC50 of 2.43 µM.
Compound `C=CCNC(=S)N/N=C(\C)c1ccccn1` has an AC50 of 8.96 µM.
With `O=C(N/N=C/c1c(O)ccc2ccccc12)c1cccc(C(F)(F)F)c1` the AC50 was > 52 µM (inactive).
With `Oc1c(CN2CCN(c3ccc(F)cc3)CC2)cc(Cl)c2cccnc12` the AC50 was 7.42 µM.
Work on `COc1cccc(N=Nc2ccc(O)c3ncccc23)c1` yielded an AC50 of 3.91 µM.
With `Oc1ccc(N=Nc2ccc3c(c2)OCCO3)c2cccnc12` the AC50 was 10.8 µM.
`C/C(=N\NC(=O)c1cc2ccccc2cc1O)c1ccccn1` gave an AC50 of 5.02 µM.
